Laboratory results taken from ChEMBL document CHEMBL1201862, “PubChem BioAssay data set” (2004).
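96-well plates; 48 h exposure; 5 concentrations. Endpoints by linear interpolation between flanking doses. Not reached: highest tested concentration assigned. The concentration for 50% growth inhibition is given as GI50.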 Active and inactive are the calls of the source. Cut-off read from the data, not from the text of the source: active = GI50 up to about 1.1 µM and inactive = higher.

Key:
Test in all cases: growth of human tumour cells (NCI), 48 h
OVCAR-8 = system: OVCAR-8
HL-60 = system: HL-60
OVCAR-4 = system: OVCAR-4
OVCAR-3 = system: OVCAR-3
MOLT-4 = system: MOLT-4
SR = system: SR
UACC-62 = system: UACC-62
RXF 393 = system: RXF 393
T47D = system: T47D
M14 = system: M14
DU-145 = system: DU-145
PC-3 = system: PC-3
COLO 205 = system: COLO 205
IGROV-1 = system: IGROV-1
OVCAR-5 = system: OVCAR-5
NCI-H226 = system: NCI-H226
SN12C = system: SN12C
786-0 = system: 786-0
MCF7 = system: MCF7
MDA-MB-231 = system: MDA-MB-231
NCI-H460 = system: NCI-H460
Hs-578T = system: Hs-578T
KM12 = system: KM12
SF-268 = system: SF-268
HT-29 = system: HT-29
SK-MEL-5 = system: SK-MEL-5
UO-31 = system: UO-31
SNB-75 = system: SNB-75
EKVX = system: EKVX
Malme-3M = system: Malme-3M
SK-MEL-2 = system: SK-MEL-2
K562 = system: K562
CCRF-CEM = system: CCRF-CEM
NCI/ADR-RES = system: NCI/ADR-RES
HOP-62 = system: HOP-62
HCT-116 = system: HCT-116
MDA-N = system: MDA-N
RPMI-8226 = system: RPMI-8226
SNB-19 = system: SNB-19
LOX IMVI = system: LOX IMVI
HCT-15 = system: HCT-15
A498 = system: A498
MDA-MB-435 = system: MDA-MB-435
SF-539 = system: SF-539
NCI-H23 = system: NCI-H23
ACHN = system: ACHN
CAKI-1 = system: CAKI-1
TK-10 = system: TK-10
SF-295 = system: SF-295
HCC 2998 = system: HCC 2998
A549 = system: A549
SW-620 = system: SW-620
SK-MEL-28 = system: SK-MEL-28
SK-OV-3 = system: SK-OV-3
BT-549 = system: BT-549
HOP-92 = system: HOP-92
U-251 = system: U-251
UACC-257 = system: UACC-257
NCI-H522 = system: NCI-H522

## C/C(CC1SCCCS1)=C(/C)CC1SCCCS1
OVCAR-8
  GI50: > 100 µM (inactive)
HL-60
  GI50: > 100 µM (inactive)
OVCAR-4
  GI50: > 100 µM (inactive)
OVCAR-3
  GI50: > 100 µM (inactive)
MOLT-4
  GI50: > 100 µM (inactive)
SR
  GI50: > 100 µM (inactive)
UACC-62
  GI50: > 100 µM (inactive)
RXF 393
  GI50: > 100 µM (inactive)
T47D
  GI50: > 100 µM (inactive)
M14
  GI50: > 100 µM (inactive)
DU-145
  GI50: > 100 µM (inactive)
PC-3
  GI50: > 100 µM (inactive)
COLO 205
  GI50: > 100 µM (inactive)
IGROV-1
  GI50: > 100 µM (inactive)
OVCAR-5
  GI50: > 100 µM (inactive)
NCI-H226
  GI50: > 100 µM (inactive)
SN12C
  GI50: > 100 µM (inactive)
786-0
  GI50: > 100 µM (inactive)
MCF7
  GI50: > 100 µM (inactive)
MDA-MB-231
  GI50: > 100 µM (inactive)
NCI-H460
  GI50: > 100 µM (inactive)
Hs-578T
  GI50: > 100 µM (inactive)
KM12
  GI50: > 100 µM (inactive)
SF-268
  GI50: > 100 µM (inactive)
HT-29
  GI50: > 100 µM (inactive)
SK-MEL-5
  GI50: > 100 µM (inactive)
UO-31
  GI50: > 100 µM (inactive)
SNB-75
  GI50: > 100 µM (inactive)
EKVX
  GI50: > 100 µM (inactive)
Malme-3M
  GI50: > 100 µM (inactive)
SK-MEL-2
  GI50: > 100 µM (inactive)
K562
  GI50: > 100 µM (inactive)
CCRF-CEM
  GI50: > 100 µM (inactive)
NCI/ADR-RES
  GI50: > 100 µM (inactive)
HOP-62
  GI50: > 100 µM (inactive)
HCT-116
  GI50: > 100 µM (inactive)
MDA-N
  GI50: > 100 µM (inactive)
RPMI-8226
  GI50: > 100 µM (inactive)
SNB-19
  GI50: > 100 µM (inactive)
LOX IMVI
  GI50: > 100 µM (inactive)
HCT-15
  GI50: > 100 µM
A498
  GI50: > 100 µM (inactive)
MDA-MB-435
  GI50: > 100 µM (inactive)
SF-539
  GI50: > 100 µM (inactive)
NCI-H23
  GI50: > 100 µM (inactive)
ACHN
  GI50: > 100 µM (inactive)
CAKI-1
  GI50: > 100 µM (inactive)
TK-10
  GI50: > 100 µM (inactive)
SF-295
  GI50: > 100 µM (inactive)
HCC 2998
  GI50: > 100 µM (inactive)
A549
  GI50: > 100 µM (inactive)
SW-620
  GI50: > 100 µM (inactive)
SK-MEL-28
  GI50: > 100 µM (inactive)

## CCOC(=O)C1=CN=C2C(=O)N(c3ccccc3)N(C)C2(C)C1=N (centres undefined)
OVCAR-8
  GI50: > 100 µM (inactive)
HL-60
  GI50: > 100 µM (inactive)
OVCAR-4
  GI50: > 100 µM (inactive)
OVCAR-3
  GI50: > 100 µM (inactive)
SK-OV-3
  GI50: > 100 µM (inactive)
UACC-62
  GI50: > 100 µM (inactive)
RXF 393
  GI50: > 100 µM (inactive)
M14
  GI50: > 100 µM (inactive)
BT-549
  GI50: > 100 µM (inactive)
DU-145
  GI50: > 100 µM (inactive)
PC-3
  GI50: > 100 µM (inactive)
COLO 205
  GI50: > 100 µM (inactive)
IGROV-1
  GI50: > 100 µM (inactive)
OVCAR-5
  GI50: > 100 µM (inactive)
NCI-H226
  GI50: > 100 µM (inactive)
SN12C
  GI50: > 100 µM (inactive)
HOP-92
  GI50: > 100 µM (inactive)
786-0
  GI50: > 100 µM (inactive)
MCF7
  GI50: > 100 µM (inactive)
MDA-MB-231
  GI50: > 100 µM (inactive)
U-251
  GI50: > 100 µM (inactive)
NCI-H460
  GI50: > 100 µM (inactive)
KM12
  GI50: > 100 µM (inactive)
SK-MEL-5
  GI50: > 100 µM (inactive)
UO-31
  GI50: > 100 µM (inactive)
UACC-257
  GI50: > 100 µM (inactive)
SNB-75
  GI50: > 100 µM (inactive)
EKVX
  GI50: > 100 µM (inactive)
Malme-3M
  GI50: > 100 µM (inactive)
SK-MEL-2
  GI50: > 100 µM (inactive)
K562
  GI50: > 100 µM (inactive)
CCRF-CEM
  GI50: > 100 µM (inactive)
NCI/ADR-RES
  GI50: > 100 µM (inactive)
HCT-116
  GI50: > 100 µM (inactive)
MDA-N
  GI50: > 100 µM (inactive)
RPMI-8226
  GI50: > 100 µM (inactive)
SNB-19
  GI50: > 100 µM (inactive)
LOX IMVI
  GI50: > 100 µM (inactive)
HCT-15
  GI50: > 100 µM
A498
  GI50: > 100 µM (inactive)
MDA-MB-435
  GI50: > 100 µM (inactive)
SF-539
  GI50: > 100 µM (inactive)
NCI-H23
  GI50: > 100 µM (inactive)
ACHN
  GI50: > 100 µM (inactive)
CAKI-1
  GI50: > 100 µM (inactive)
TK-10
  GI50: > 100 µM (inactive)
SF-295
  GI50: > 100 µM (inactive)
HCC 2998
  GI50: > 100 µM (inactive)
A549
  GI50: > 100 µM (inactive)
SW-620
  GI50: > 100 µM (inactive)
NCI-H522
  GI50: > 100 µM (inactive)
SK-MEL-28
  GI50: > 100 µM (inactive)

## CCN(CC)C(=O)Cn1c2c(c3ccccc31)CCCC2
OVCAR-8
  GI50: > 100 µM (inactive)
HL-60
  GI50: 45.2 µM (inactive)
OVCAR-4
  GI50: > 10 µM (inactive)
OVCAR-3
  GI50: > 10 µM (inactive)
SR
  GI50: 49.9 µM (inactive)
SK-OV-3
  GI50: > 100 µM (inactive)
UACC-62
  GI50: 99.8 µM (inactive)
M14
  GI50: > 100 µM (inactive)
BT-549
  GI50: > 100 µM (inactive)
PC-3
  GI50: 68.5 µM (inactive)
COLO 205
  GI50: > 100 µM (inactive)
IGROV-1
  GI50: > 100 µM (inactive)
OVCAR-5
  GI50: > 100 µM (inactive)
SN12C
  GI50: > 100 µM (inactive)
HOP-92
  GI50: > 100 µM (inactive)
786-0
  GI50: > 100 µM (inactive)
MCF7
  GI50: > 100 µM (inactive)
NCI-H460
  GI50: > 100 µM (inactive)
Hs-578T
  GI50: 24.5 µM (inactive)
SF-268
  GI50: > 100 µM (inactive)
HT-29
  GI50: > 100 µM (inactive)
SK-MEL-5
  GI50: 64 µM (inactive)
UO-31
  GI50: 23.2 µM (inactive)
UACC-257
  GI50: > 100 µM (inactive)
EKVX
  GI50: > 100 µM (inactive)
Malme-3M
  GI50: > 100 µM (inactive)
SK-MEL-2
  GI50: > 100 µM (inactive)
K562
  GI50: 68.4 µM (inactive)
CCRF-CEM
  GI50: 89.3 µM (inactive)
NCI/ADR-RES
  GI50: 66.4 µM (inactive)
HOP-62
  GI50: > 100 µM (inactive)
HCT-116
  GI50: 40.9 µM (inactive)
MDA-N
  GI50: 77.8 µM (inactive)
RPMI-8226
  GI50: 56.8 µM (inactive)
SNB-19
  GI50: > 100 µM (inactive)
LOX IMVI
  GI50: > 100 µM (inactive)
HCT-15
  GI50: 74.6 µM
A498
  GI50: > 100 µM (inactive)
MDA-MB-435
  GI50: 91.4 µM (inactive)
SF-539
  GI50: 47.2 µM (inactive)
NCI-H23
  GI50: 45.4 µM (inactive)
ACHN
  GI50: 65.2 µM (inactive)
CAKI-1
  GI50: 57 µM (inactive)
TK-10
  GI50: > 100 µM (inactive)
SF-295
  GI50: 49.8 µM (inactive)
HCC 2998
  GI50: > 100 µM (inactive)
A549
  GI50: 61.8 µM (inactive)
SW-620
  GI50: > 100 µM (inactive)
SK-MEL-28
  GI50: > 100 µM (inactive)
